According to patent publication US8901118B2, “Compounds and methods for kinase modulation, and indications therefor” (Plexxikon Inc., priority 2010, dated 2014):

What was measured:
BCR-KIT BaF3 cells = target: T1, BCR-KIT BaF3 cells (Homo sapiens, UniProt P10721); test: BaF3 BCR-KIT cell proliferation assay (ATPlite); type: cell-based; conditions: read-out: Inhibition of Cell Proliferation IC50, BCR/BaF3 Kit
T1 construct: fused on or other part: P11274 (Breakpoint cluster region protein)
Procedure: (§1) Compounds are assessed in a variety of cell based assays. For example BaF3 cells engineered with any of BCR-FMS, BCR-KIT, BCR-FLT3, BCR-NTRK1, BCR-NTRK2, and BCR-NTRK3, are used in cell proliferation assays to assess inhibitory activity of Fms, Kit, Flt-3, TrkA, TrkB, and TrkC, respectively. An MV-4-11 (leukemia) cell proliferation assay is used to assess inhibitory activity in Flt-3, and SKNSH (human neuroblastoma) cell proliferation assay is used to assess efficacy of Fms/Trk inhibitors. Additional cells may be assayed similarly to assess the efficacy of Fms/Trk inhibitors, such as MiaPaCa (human pancreatic cancer) and Capan-1 (human pancreatic carcinoma) cells. Reagent and assay conditions are as follows: • BaF3 cells: • Maintained in RPMI containing 10% FBS, 1% PenStrep, 1% NEAA, and 1% L-Glutamine, supplemented with 1 mg/mL G418 and 5% WEHI-CM (or recombinant murine IL-3). • Confluent cells are split 1:50 to 1:100 every 3-4 days. • MV-4-11 cells: • Maintained in Iscove's Modified Dulbecco's Medium containing 10% FBS. • Confluent cells are split 1:4 every 3-4 days. • SKNSH cells: RPMI containing 10% FBS. On day 1, cells are counted, then centrifuged in a conical tube for 5 minutes at 1000 rpm. The supernatant is removed and cells are re-suspended as follows: • BaF3: resuspend in growth media +1 mg/mL G418 (without WEHFIL-3) to 2×10^5 cells/mL. • MV-4-11: resuspend in growth media to 5×10^5 cells/mL. • SKNSH: resuspend in growth media to 2×10^4 cells/mL. The cells are plated (50 μL, 150 μL for SKNSH cells) in each well of a 96-well dish (Corning 3610) and incubated at 37° C. in 5% CO2 overnight, cells plated to a final concentration of cells as follows: • BaF3: 10,000 cells per well. • MV-4-11: 25,000 cells per well. • SKNSH: 3,000 cells per well. On day 2, compound at a maximum concentration of 5 mM is serially diluted 1:3 for a total of 8 point titration with DMSO as a control. A 1 μL aliquot of each dilution point is added to 249 μL growth media and 50 μL is added to a well containing cells, providing 10 μM compound for the maximum concentration point. The cells are incubated for 3 days at 37° C. in 5% CO2. For SKNSH cells, a 0.75 μL aliquot of appropriate dilution in DMSO is added to 150 μL of cells. On day 5, ATPlite 1 step Luminescence Assay System (Perkin Elmer #6016739) is brought to room temperature along with the cell cultures. ATPlite is added to each well as follows: • BaF3: 25 μL per well. • MV-4-11: 40 μL per well. • SKNSH: 20 μL per well. The cells are incubated at room temperature for 10 minutes, then luminescence is read on Safire reader. The measured luminescence correlates directly with cell number, such that the reading as a function of compound concentration is used to determine the IC50 value.
(§2) It is understood that the results of these assays may vary as assay conditions are varied. Inhibition levels determined under the conditions described herein represent a relative activity for the compounds tested under the specific conditions employed. The cell based assays are likely to show variability due to the complexity of the system and the sensitivity thereof to any changes in the assay conditions. […] Results for compounds that are tested and show substantially no inhibition below the highest tested concentration are represented as “-” in the tables below. In some instances, the compounds were not tested in all of the assays, or assay results were not valid, as indicated by NA in the tables below.

SKNSH cells = test: SKNSH (human neuroblastoma) cell proliferation assay (ATPlite); type: cell-based; conditions: SK-N-SH, read-out: Inhibition of Cell Proliferation IC50, SKNSH
Procedure: as §1, §2

T1 sequence (P10721 589-937): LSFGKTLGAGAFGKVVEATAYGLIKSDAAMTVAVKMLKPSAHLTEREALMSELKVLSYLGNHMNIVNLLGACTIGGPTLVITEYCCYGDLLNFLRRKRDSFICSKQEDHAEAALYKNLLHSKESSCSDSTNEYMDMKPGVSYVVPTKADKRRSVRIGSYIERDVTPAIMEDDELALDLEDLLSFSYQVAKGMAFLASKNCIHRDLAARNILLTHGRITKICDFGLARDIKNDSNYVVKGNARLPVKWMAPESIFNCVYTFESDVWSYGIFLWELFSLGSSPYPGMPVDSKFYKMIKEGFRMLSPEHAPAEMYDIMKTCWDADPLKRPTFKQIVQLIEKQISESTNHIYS

SMILES	IC50 (BCR-KIT BaF3 cells) [nM]	IC50 (SKNSH cells) [nM]
COc1ccc(Nc2ccc(C(=O)c3c[nH]c4ncnc(NC(C)(C)C)c34)c(F)n2)cn1 [Compound P-4055, [4-(tert-butylamino)-7H-pyrrolo[2,3-d]pyrimidin-5-yl]-[2-fluoro-6-[(6-methoxy-3-pyridyl)amino]-3-pyridyl]methanone]	> 1000	< 1000
COc1ccc(Nc2ccc(C(=O)c3c[nH]c4ncnc(NC5CCC(F)(F)CC5)c34)c(F)n2)cn1 [Compound P-4056, [4-[(4,4-difluorocyclohexyl)amino]-7H-pyrrolo[2,3-d]pyrimidin-5-yl]-[2-fluoro-6-[(6-methoxy-3-pyridyl)amino]-3-pyridyl]methanone]	> 1000	< 1000
O=C(c1ccc(NC2CCC(F)(F)CC2)nc1Cl)c1c[nH]c2ncnc(NCC(F)(F)F)c12 [Compound P-4057, [2-chloro-6-[(4,4-difluorocyclohexyl)amino]-3-pyridyl]-[4-(2,2,2-trifluoroethylamino)-7H-pyrrolo[2,3-d]pyrimidin-5-yl]methanone]	> 1000	< 10000
CNc1ncnc2[nH]cc(C(=O)c3ccc(NC4CCC(F)(F)CC4)nc3Cl)c12 [Compound P-4058, [2-chloro-6-[(4,4-difluorocyclohexyl)amino]-3-pyridyl]-[4-(methylamino)-7H-pyrrolo[2,3-d]pyrimidin-5-yl]methanone]	< 1000	< 10000
O=C(c1ccc(NC2CCC(F)(F)CC2)nc1Cl)c1c[nH]c2ncnc(NC3CC3)c12 [Compound P-4059, [2-chloro-6-[(4,4-difluorocyclohexyl)amino]-3-pyridyl]-[4-(cyclopropylamino)-7H-pyrrolo[2,3-d]pyrimidin-5-yl]methanone]	> 1000	< 1000
CCNc1ncnc2[nH]cc(C(=O)c3ccc(Nc4ccc(C5CC5)nc4)nc3F)c12 [Compound P-4060, [6-[(6-cyclopropyl-3-pyridyl)amino]-2-fluoro-3-pyridyl]-[4-(ethylamino)-7H-pyrrolo[2,3-d]pyrimidin-5-yl]methanone]	< 100	< 100
CNc1ncnc2[nH]cc(C(=O)c3ccc(NC4CCC(F)(F)CC4)nc3F)c12 [Compound P-4063, [6-[(4,4-difluorocyclohexyl)amino]-2-fluoro-3-pyridyl]-[4-(methylamino)-7H-pyrrolo[2,3-d]pyrimidin-5-yl]methanone]	< 100	< 1000
CCc1ccc(Nc2ccc(C(=O)c3c[nH]c4ncnc(N)c34)c(F)n2)cn1 [Compound P-4065, (4-amino-7H-pyrrolo[2,3-d]pyrimidin-5-yl)-[6-[(6-ethyl-3-pyridyl)amino]-2-fluoro-3-pyridyl]methanone]	< 100	< 1000
O=C(c1ccc(NC2CCC(F)(F)CC2)nc1)c1c[nH]c2ncnc(NCC(F)(F)F)c12 [Compound P-4087, [6-[(4,4-difluorocyclohexyl)amino]-3-pyridyl]-[4-(2,2,2-trifluoroethylamino)-7H-pyrrolo[2,3-d]pyrimidin-5-yl]methanone]	> 1000	–
O=C(c1ccc(NC2CCC(F)(F)CC2)nc1)c1c[nH]c2ncnc(NC3CC3)c12 [Compound P-4088, [4-(cyclopropylamino)-7H-pyrrolo[2,3-d]pyrimidin-5-yl]-[6-[(4,4-difluorocyclohexyl)amino]-3-pyridyl]methanone]	< 1000	–
CNc1ncnc2[nH]cc(C(=O)c3ccc(NC4CCC(F)(F)CC4)nc3)c12 [Compound P-4089, [6-[(4,4-difluorocyclohexyl)amino]-3-pyridyl]-[4-(methylamino)-7H-pyrrolo[2,3-d]pyrimidin-5-yl]methanone]	< 1000	< 10000
O=C(c1ccc(Nc2ccc(C3CC3)nc2)nc1F)c1c[nH]c2ncnc(NC3CC3)c12 [Compound P-4093, [4-(cyclopropylamino)-7H-pyrrolo[2,3-d]pyrimidin-5-yl]-[6-[(6-cyclopropyl-3-pyridyl)amino]-2-fluoro-3-pyridyl]methanone]	< 100	–
Cc1ccc(Nc2ccc(C(=O)c3c[nH]c4ncnc(NC5CCCCC5)c34)c(F)n2)cn1 [Compound P-4111, [4-(cyclohexylamino)-7H-pyrrolo[2,3-d]pyrimidin-5-yl]-[2-fluoro-6-[(6-methyl-3-pyridyl)amino]-3-pyridyl]methanone]	< 1000	–
Cc1ccc(Nc2ccc(C(=O)c3c[nH]c4ncnc(NCC5CC5)c34)c(F)n2)cn1 [Compound P-4113, [4-(cyclopropylmethylamino)-7H-pyrrolo[2,3-d]pyrimidin-5-yl]-[2-fluoro-6-[(6-methyl-3-pyridyl)amino]-3-pyridyl]methanone]	< 1000	–
CCCNc1ncnc2[nH]cc(C(=O)c3ccc(Nc4ccc(C)nc4)nc3F)c12 [Compound P-4114, [2-fluoro-6-[(6-methyl-3-pyridyl)amino]-3-pyridyl]-[4-(propylamino)-7H-pyrrolo[2,3-d]pyrimidin-5-yl]methanone]	< 1000	–
CNc1ncnc2[nH]cc(C(=O)c3ccc(Nc4ccc(C)nc4)nc3F)c12 [Compound P-4115, [2-fluoro-6-[(6-methyl-3-pyridyl)amino]-3-pyridyl]-[4-(methylamino)-7H-pyrrolo[2,3-d]pyrimidin-5-yl]methanone]	< 1000	–
CCc1ccc(Nc2ccc(C(=O)c3c[nH]c4ncnc(NC5CCOCC5)c34)c(F)n2)cn1 [Compound P-4116, [6-[(6-ethyl-3-pyridyl)amino]-2-fluoro-3-pyridyl]-[4-(tetrahydropyran-4-ylamino)-7H-pyrrolo[2,3-d]pyrimidin-5-yl]methanone]	< 100	–
CCc1ccc(Nc2ccc(C(=O)c3c[nH]c4ncnc(NC(C)C)c34)c(F)n2)cn1 [Compound P-4117, [6-[(6-ethyl-3-pyridyl)amino]-2-fluoro-3-pyridyl]-[4-(isopropylamino)-7H-pyrrolo[2,3-d]pyrimidin-5-yl]methanone]	< 100	–
CCc1ccc(Nc2ccc(C(=O)c3c[nH]c4ncnc(NCC5CC5)c34)c(F)n2)cn1 [Compound P-4118, [4-(cyclopropylmethylamino)-7H-pyrrolo[2,3-d]pyrimidin-5-yl]-[6-[(6-ethyl-3-pyridyl)amino]-2-fluoro-3-pyridyl]methanone]	< 100	–
CCc1ccc(Nc2ccc(C(=O)c3c[nH]c4ncnc(NCCOC)c34)c(F)n2)cn1 [Compound P-4119, [6-[(6-ethyl-3-pyridyl)amino]-2-fluoro-3-pyridyl]-[4-(2-methoxyethylamino)-7H-pyrrolo[2,3-d]pyrimidin-5-yl]methanone]	< 100	–
CCc1ccc(Nc2ccc(C(=O)c3c[nH]c4ncnc(NCC(C)C)c34)c(F)n2)cn1 [Compound P-4121, [6-[(6-ethyl-3-pyridyl)amino]-2-fluoro-3-pyridyl]-[4-(isobutylamino)-7H-pyrrolo[2,3-d]pyrimidin-5-yl]methanone]	< 100	–
CCCNc1ncnc2[nH]cc(C(=O)c3ccc(Nc4ccc(CC)nc4)nc3F)c12 [Compound P-4122, [6-[(6-ethyl-3-pyridyl)amino]-2-fluoro-3-pyridyl]-[4-(propylamino)-7H-pyrrolo[2,3-d]pyrimidin-5-yl]methanone]	< 100	–
CCc1ccc(Nc2ccc(C(=O)c3c[nH]c4ncnc(NC5CC5)c34)c(F)n2)cn1 [Compound P-4125, [4-(cyclopropylamino)-7H-pyrrolo[2,3-d]pyrimidin-5-yl]-[6-[(6-ethyl-3-pyridyl)amino]-2-fluoro-3-pyridyl]methanone]	< 100	–
